Results taken from patent US20230015949A1, “NEISSERIA TREATMENT USING CANNABINOIDS” (priority 2019, published 2023).
Values after ≈ are worked out from the molar mass of the structure shown. Where two headings read alike, the source gives them in different places.

Columns and labels:
Neisseria gonorrhoeae [1] = details: N. gonorrhoeae ATCC 49226; in parentheses in broth microdilution columns; ranges are for agar dilution testing; cited from earlier work
Neisseria gonorrhoeae [2] = experiment: Broth microdilution MIC testing (Example 1); assay type: cell-based; details: Neisseria gonorrhoeae, broth microdilution, read-out: MIC
Protocol: (§1) In this study, to evaluate the spectrum of activity, cannabidiol (CBD) was profiled against Neisseria. Testing was conducted following guidelines recommended by the Clinical and Laboratory Standards Institute (CLSI, 1-4), using vancomycin, meropenem, levofloxacin, and gentamicin as comparators for testing aerobic bacteria.
(§2) Test agents were supplied by Micromyx. Stock solutions of all compounds were prepared on the first day of testing at 101× the highest test concentration using solvents recommended by CLSI. CBD was prepared fresh on each of testing.
(§3) The test organisms evaluated in this study consisted of clinical isolates from the Micromyx Repository, reference isolates from the American Type Culture Collection (ATCC; Manassas, Va.), isolates from the antibiotic resistance bank from the Centers for Disease Control and Prevention (CDC; Atlanta, Ga.), and isolates from the Network on Antimicrobial Resistance in Staphylococcus aureus (NARSA; BEI Resources, Manassas, Va.). Upon initial receipt at Micromyx, the organisms were sub-cultured onto an appropriate agar medium. Following incubation, colonies were harvested from these plates and cell suspensions prepared and frozen at −80° C. with a cryoprotectant.
(§4) Prior to testing, Neisseria was streaked onto Chocolate agar (BD; Lot No. 9228071) and incubated at 35° C. in 5% CO2 for 24 hr.
(§5) For Neisseria, a modified medium described by the ATCC as capable of supporting growth was used. This medium contains 15 g Oxoid Special Peptone, 1 g corn starch (Ward's Science; Rochester, N.Y.; Lot 39-3271), 5 g NaCl (VWR; 57897), 4 g K2HPO4 (Sigma; Lot SLBT7061), 1 g KH2PO4 (SLBC1921V), and 1% IsoVitaleX (BD; Lot 8323954) enrichment per 500 mL.
(§6) MIC values were determined using a broth microdilution procedure described by CLSI (1-4). Automated liquid handlers (Multidrop 384, Labsystems, Helsinki, Finland; Biomek 2000 and Biomek FX, Beckman Coulter, Fullerton, Calif.) were used to conduct serial dilutions and liquid transfers.
(§7) To prepare the drug mother plates, which would provide the serial drug dilutions for the replicate daughter plates, the wells of columns 2 through 12 of standard 96-well microdilution plates (Costar 3795) were filled with 150 μl of the designated diluent for each row of drug. The test article and comparator compounds (300 μl at 101× the highest concentration to be tested) were dispensed into the appropriate wells in column 1. The Biomek 2000 was then used to make 2-fold serial dilutions in the mother plates from column 1 through column 11. The wells of column 12 contained no drug and served as the organism growth control wells for the assay.
(§8) The daughter plates were loaded with 190 μL per well of the appropriate test medium for the tested organism using the Multidrop 384. The daughter plates were completed on the Biomek FX instrument which transferred 2 μL of drug solution from each well of a mother plate to the corresponding well of each daughter plate in a single step.
A standardized inoculum of each test organism was prepared per CLSI methods (1-4). The inoculum for each organism was dispensed into sterile reservoirs divided by length (Beckman Coulter), and the Biomek 2000 was used to inoculate the plates. Daughter plates were placed on the Biomek 2000 work surface in reverse orientation so that inoculation took place from low to high drug concentration. Plates were inoculated with 10 μL of the inoculum resulting in a final cell density of approximately 5×10^5 CFU/mL per well.
The plates for testing of aerobic organisms were stacked 3 to 4 high, covered with a sterile lid, and incubated at 35° C. and 5% CO2 for the time periods specified in CLSI (1-4). […] Following incubation, the microplates were removed from the incubator and viewed from the bottom using a plate viewer. […] The MIC was read and recorded as the lowest concentration of drug that inhibited visible growth of the organism.

Neisseria meningitidis = experiment: Broth microdilution MIC testing (Example 1); assay type: cell-based; details: Neisseria meningitidis, ATCC13090; N. meningitidis MMX 0707 / ATCC 13090; broth microdilution; read-out: MIC
Protocol: as §1, §2, §3, §4, §5, §6, §7, §8
A standardized inoculum of each test organism was prepared per CLSI methods (1-4). The inoculum for each organism was dispensed into sterile reservoirs divided by length (Beckman Coulter), and the Biomek 2000 was used to inoculate the plates. […]
The plates for testing of aerobic organisms were stacked 3 to 4 high, covered with a sterile lid, and incubated at 35° C. and 5% CO2 for the time periods specified in CLSI (1-4). […] The MIC was read and recorded as the lowest concentration of drug that inhibited visible growth of the organism.

| SMILES | CLSI QC range of MIC (Neisseria gonorrhoeae [1]) [µg/mL] | MIC (Neisseria gonorrhoeae [2]; ATCC49226, N. gonorrhoeae MMX 0683 / ATCC 49226, plate read at 40 hr) [µg/mL] | MIC (Neisseria gonorrhoeae [2]; N. gonorrhoeae MMX 6746) [µg/mL] | MIC (Neisseria gonorrhoeae [2]; N. gonorrhoeae MMX 6757, plate read at 40 hr) [µg/mL] | MIC (Neisseria meningitidis) [µg/mL] |
| --- | --- | --- | --- | --- | --- |
| CC[C@H]1OC(=O)[C@H](C)[C@@H](O[C@H]2C[C@@](C)(OC)[C@@H](O)[C@H](C)O2)[C@H](C)[C@@H](O[C@@H]2O[C@H](C)C[C@H](N(C)C)[C@H]2O)[C@](C)(O)C[C@@H](C)CN(C)[C@H](C)[C@@H](O)[C@]1(C)O [AZI, azithromycin] | 0.25 to 1 | – | – | – | – |
| C=C(C)C1CCC(C)=CC1c1c(O)cc(CCCCC)cc1O (centres unmarked) [CBD, 2-[3-methyl-6-(1-methylethenyl)-2-cyclohexen-1-yl]-5-pentyl-1,3-benzenediol] | – | 1 (≈ 3.18 µM) | 1 (≈ 3.18 µM) | 2 (≈ 6.36 µM) | 0.25 (≈ 0.795 µM) |
